# Test results from US20240270809A1, “ORAL GLP RECEPTOR AGONISTS” (priority 2020, published 2024).
# Positions of bridges follow the written chain, without caps; N, C: chain ends. Non-standard residues stand in square brackets, D forms with d. Residues, ends and D or L forms follow the SMILES beside them. d(αMeF) = C[C@@](N)(Cc1ccccc1)C(=O)O; αMeL = CC(C)C[C@](C)(N)C(=O)O; Nle = CCCC[C@H](N)C(=O)O; Aib = CC(C)(N)C(=O)O
# Key:
# [1] = Stability of peptides in rat intestinal fluid (ratIF); conditions: Sprague Dawley, undiluted rat small intestinal fluid (ratIF)
# Experimental: Peptides were tested for in vitro stability in native intestinal fluid obtained from the rat small intestine. Rat Sprague Dawley Small Intestinal Fluid (ratIF) (from Biotrend art. no. RSD-SIF-MI-30ML, undiluted) was preincubated for 15 min at 37° C. and spiked with test and reference item working solutions. Experiments were conducted in duplicate in a non-serial manner. The total incubation volume per replicate was 150 μl. […] All samples and calibration standards (prepared in ratIF) were precipitated by addition of 300 μl precipitant (ACN / 2% acetic acid / 0.2% HFBA, (precipitation regent, PR)) containing internal standards (ISTD) to 150 μl sample. After incubation for 1 h at room temperature all samples were centrifuged for 10 min at 2,200×g (room temperature).
# human GLP2 receptor = biological target: T1, human GLP2 receptor (Homo sapiens, UniProt O95838); assay: cAMP accumulation assay, functional agonism of human GLP2 receptor; type: cell-based; conditions: HEK cells infected with human GLP2 receptor BacMam virus, HTRF cAMP; for Emax: HEK293, read-out: Human GLP-2R agonist cAMP Emax; for EC50: read-out: Human GLP-2R agonist cAMP pEC50 (converted)
# T1 construct: expressed in transfected cells; host or cells: HEK cells, BacMam virus transduction
# T1 sequence (O95838 1-553): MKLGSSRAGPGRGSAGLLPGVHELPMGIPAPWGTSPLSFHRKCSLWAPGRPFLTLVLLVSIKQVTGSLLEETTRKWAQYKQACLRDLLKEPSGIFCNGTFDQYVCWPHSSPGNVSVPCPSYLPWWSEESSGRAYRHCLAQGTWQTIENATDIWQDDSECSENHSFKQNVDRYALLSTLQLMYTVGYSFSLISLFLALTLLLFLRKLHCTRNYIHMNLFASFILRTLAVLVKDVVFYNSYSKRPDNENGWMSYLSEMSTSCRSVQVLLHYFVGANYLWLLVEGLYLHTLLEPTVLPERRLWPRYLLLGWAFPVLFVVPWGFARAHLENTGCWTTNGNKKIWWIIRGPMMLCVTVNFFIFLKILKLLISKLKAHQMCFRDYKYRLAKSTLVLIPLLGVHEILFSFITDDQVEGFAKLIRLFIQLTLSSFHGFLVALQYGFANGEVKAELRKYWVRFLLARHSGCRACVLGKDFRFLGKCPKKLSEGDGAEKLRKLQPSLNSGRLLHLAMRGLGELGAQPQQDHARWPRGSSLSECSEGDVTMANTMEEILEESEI
# Summary of the method: (§1)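 Frozen HEK cells, previously BacMam-infected 24 h to express either receptor, are stimulated for 45 min at 37° C in IBMX-containing (0.5 mM) HBSS. The reaction is then terminated with HTRF reagents in lysis buffer.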
# human GLP1 receptor = biological target: T2, human GLP1 receptor (Homo sapiens, UniProt P43220); assay: cAMP accumulation assay, functional agonism of human GLP1 receptor; type: cell-based; conditions: HEK cells infected with human GLP1 receptor BacMam virus, HTRF cAMP; for Emax: HEK293, read-out: Human GLP-1R agonist cAMP Emax; for EC50: read-out: Human GLP-1R agonist cAMP pEC50 (converted)
# T2 construct: expressed in transfected cells; host or cells: HEK cells, BacMam virus transduction
# T2 sequence (P43220 24-463): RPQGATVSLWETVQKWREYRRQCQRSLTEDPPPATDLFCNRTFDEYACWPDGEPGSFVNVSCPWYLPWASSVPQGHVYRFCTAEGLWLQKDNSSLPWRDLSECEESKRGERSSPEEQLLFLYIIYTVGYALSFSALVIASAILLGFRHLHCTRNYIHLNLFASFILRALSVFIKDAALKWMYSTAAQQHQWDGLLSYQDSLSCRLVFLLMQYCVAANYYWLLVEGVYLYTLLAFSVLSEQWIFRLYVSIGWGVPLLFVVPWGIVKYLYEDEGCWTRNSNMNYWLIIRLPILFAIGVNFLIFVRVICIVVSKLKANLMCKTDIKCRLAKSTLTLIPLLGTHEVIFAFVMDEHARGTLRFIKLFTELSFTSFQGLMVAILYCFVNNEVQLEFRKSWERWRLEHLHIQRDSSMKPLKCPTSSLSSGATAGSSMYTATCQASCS
# Summary of the method: as §1
# mouse GLP2 receptor = biological target: T3, mouse GLP2 receptor (Mus musculus, UniProt Q5IXF8); assay: cAMP accumulation assay, functional agonism of mouse GLP2 receptor; type: cell-based; conditions: HEK cells transiently transfected with mouse GLP2 receptor, HTRF cAMP; for Emax: HEK293, read-out: Mouse GLP-2R agonist cAMP Emax; for EC50: read-out: Mouse GLP-2R agonist cAMP pEC50 (converted)
# T3 construct: expressed in transfected cells; host or cells: HEK cells, transient transfection with GeneJuice
# T3 sequence (Q5IXF8 1-512): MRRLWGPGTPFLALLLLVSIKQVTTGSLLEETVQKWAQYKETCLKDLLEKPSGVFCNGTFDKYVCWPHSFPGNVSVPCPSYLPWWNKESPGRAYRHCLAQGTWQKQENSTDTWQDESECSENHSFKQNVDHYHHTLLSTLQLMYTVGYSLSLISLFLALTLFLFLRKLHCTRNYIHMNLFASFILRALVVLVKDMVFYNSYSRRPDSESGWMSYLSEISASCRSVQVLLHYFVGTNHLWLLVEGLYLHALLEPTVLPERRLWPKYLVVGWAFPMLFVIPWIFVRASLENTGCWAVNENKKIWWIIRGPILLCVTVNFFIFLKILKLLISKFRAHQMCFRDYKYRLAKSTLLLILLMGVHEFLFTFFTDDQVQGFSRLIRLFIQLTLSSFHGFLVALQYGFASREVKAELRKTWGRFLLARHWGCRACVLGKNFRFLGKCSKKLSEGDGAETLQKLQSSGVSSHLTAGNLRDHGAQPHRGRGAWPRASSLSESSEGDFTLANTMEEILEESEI
# Summary of the method: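 Transiently transfected HEK cells (24 h, frozen, 8000/well) in HBSS with 0.5 mM IBMX exposed to compound concentration series for 45 min at 37 °C. cAMP measured by HTRF after lysis and 1 h at RT; pEC50 from four-parameter concentration-response fit.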
# mouse GLP1 receptor = biological target: T4, mouse GLP1 receptor (Mus musculus, UniProt O35659); assay: cAMP accumulation assay, functional agonism of mouse GLP1 receptor; type: cell-based; conditions: HEK cells transiently transfected with mouse GLP1 receptor, HTRF cAMP
# T4 construct: expressed in transfected cells; host or cells: HEK cells, transient transfection with GeneJuice
# T4 sequence (O35659 22-463): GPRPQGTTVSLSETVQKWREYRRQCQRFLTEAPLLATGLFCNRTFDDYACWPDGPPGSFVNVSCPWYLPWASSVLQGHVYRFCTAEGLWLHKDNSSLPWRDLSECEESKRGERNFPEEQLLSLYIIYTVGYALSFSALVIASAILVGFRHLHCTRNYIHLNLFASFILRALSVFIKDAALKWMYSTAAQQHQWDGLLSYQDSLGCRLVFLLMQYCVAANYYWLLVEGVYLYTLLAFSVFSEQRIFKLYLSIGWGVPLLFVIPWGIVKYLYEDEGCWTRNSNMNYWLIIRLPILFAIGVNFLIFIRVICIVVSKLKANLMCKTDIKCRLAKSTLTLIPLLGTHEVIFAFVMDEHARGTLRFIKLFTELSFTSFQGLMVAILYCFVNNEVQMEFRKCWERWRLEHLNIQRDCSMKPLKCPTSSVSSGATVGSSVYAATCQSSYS
# Experimental: CAMP production upon agonist stimulation of mouse GLP2 or GLP1 receptors was assessed utilizing HiRange cAMP kit (Cisbio). In brief, HEK cells were transiently transfected for 24 hours with cDNA using GeneJuice Transfection reagent (EMD Millipore) and frozen at −80° C. for later use in the assay. […] Cells were prepared in the assay buffer (HBSS (Lonza) supplemented with 0.5 mM IBMX (Tocris)). After 45 min incubation at 37° C., the reaction was stopped by addition of the HTRF detection reagents in the lysis buffer provided in the kit. Following 1-hour incubation at RT, plates were read on Pherastar FS (BMG Labtech, Inc.) using standard HTRF settings. Dotmatics Studies software was used for calculation of pEC50 values by fitting data to a four-parameter concentration response curve.
# [2] = Stability of peptides in Fasted-State Simulated Intestinal Fluid (FaSSIF); type: in vitro ADME; conditions: FaSSIF with 10 mg/ml pancreatin; FaSSIF pH 6.5 with 10 mg/ml pancreatin, 37° C., t = 15 mins
# Experimental: Stability of peptides was tested in Fasted-State Simulated Intestinal Fluid (FaSSIF) prepared according to manufacturer's protocol (Biorelevant, art.no. FFF01, pH 6.5). […] FaSSIF was pre-incubated for 15 min at 37° C. and spiked with test and reference item working solutions. Experiments were conducted in duplicate in a non-serial manner. The total incubation volume per replicate was 150 μl. Sampling time points for test items were 0, 0.5, 2, 5, 10, 15 and 30 min. All samples and calibration standards (prepared in FaSSIF) were precipitated by addition of 300 μl precipitant (ACN / 2% acetic acid / 0.2% HFBA, (precipitation reagent, PR)) containing internal standard (ISTD) to 150 μl sample. After incubation for 1 h at room temperature all samples were centrifuged for 10 min at 2,200×g (room temperature).
remaining at 0.5 h [1],Emax (human GLP2 receptor),EC50 (human GLP2 receptor),Emax (human GLP1 receptor),EC50 (human GLP1 receptor),Emax (mouse GLP2 receptor),EC50 (mouse GLP2 receptor),"Emax (mouse GLP1 receptor; HEK293, read-out: Mouse GLP-1R agonist cAMP Emax)",EC50 (mouse GLP1 receptor; read-out: Mouse GLP-1R agonist cAMP pEC50 (converted)),remaining at 0.25 h [2],SMILES
11%,99.3%,0.0631 nM,97.1%,0.251 nM,,,,,,"CCCC[C@H](NC(=O)[C@H](CCC(=O)O)NC(=O)[C@@H]1CC(=O)NCCCC[C@H](NC(=O)[C@H](CCC(N)=O)NC(=O)C(C)(C)NC(=O)[C@@H](N)Cc2c[nH]cn2)C(=O)N[C@@H](CO)C(=O)N[C@@H](Cc2ccccc2)C(=O)N[C@@H](CO)C(=O)N1)C(=O)N[C@H](Cc1ccccc1)C(=O)N[C@H](C(=O)N[C@@](C)(CC(C)C)C(=O)N[C@@H](CC(C)C)C(=O)N[C@@H](CC(=O)O)C(=O)N[C@H]1CCC(=O)NCCCC[C@@H](C(=O)N[C@@H](CC(=O)O)C(=O)N[C@@H](Cc2ccccc2)C(=O)N[C@H](C(=O)N[C@H]2CCC(=O)NCCCC[C@@H](C(=O)N[C@H](C(=O)N[C@@H](CCCCN)C(N)=O)[C@@H](C)O)NC(=O)[C@H]([C@@H](C)CC)NC(=O)[C@H](CC(C)C)NC(=O)[C@H](Cc3c[nH]c4ccccc34)NC2=O)[C@@H](C)CC)NC(=O)[C@H](C)NC(=O)[C@H](C)NC(=O)[C@H](CCCCN)NC1=O)[C@@H](C)O [Example 27] (H-H[Aib]QKSFSDE[Nle][dF]T[αMeL]LDEKAAKDFIEWLIKTK-NH2; lactam 4-8, 16-20, 24-28; N-terminus and C-terminus assumed)"
41.3%,103%,0.0316 nM,96.2%,0.0501 nM,100%,5.01 nM,,,,"CCCC[C@H](NC(=O)[C@H](CCC(=O)O)NC(=O)[C@@H]1CC(=O)NCCCC[C@H](NC(=O)[C@H](CC(=O)O)NC(=O)C(C)(C)NC(=O)[C@@H](N)Cc2c[nH]cn2)C(=O)N[C@@H](CO)C(=O)N[C@@H](Cc2ccccc2)C(=O)N[C@@H](CO)C(=O)N1)C(=O)N[C@H](Cc1ccccc1)C(=O)N[C@H](C(=O)N[C@@](C)(CC(C)C)C(=O)N[C@@H](CC(C)C)C(=O)N[C@@H](CC(=O)O)C(=O)N[C@H]1CCC(=O)NCCCC[C@@H](C(=O)N[C@@H](CC(=O)O)C(=O)N[C@@H](Cc2ccccc2)C(=O)N[C@H](C(=O)N[C@H]2CCC(=O)NCCCC[C@@H](C(=O)N[C@H](C(=O)N3CCC[C@H]3C(N)=O)[C@@H](C)O)NC(=O)[C@H]([C@@H](C)CC)NC(=O)[C@H](CC(C)C)NC(=O)[C@H](Cc3c[nH]c4ccccc34)NC2=O)[C@@H](C)CC)NC(=O)[C@H](C)NC(=O)[C@H](C)NC(=O)[C@H](CCCCN)NC1=O)[C@@H](C)O [Example 29] (H-H[Aib]DKSFSDE[Nle][dF]T[αMeL]LDEKAAKDFIEWLIKTP-NH2; lactam 4-8, 16-20, 24-28 (inferred); C-terminus assumed)"
23.3%,104%,0.0316 nM,97.1%,0.0316 nM,,,,,,"CCCC[C@H](NC(=O)[C@H](CCC(=O)O)NC(=O)[C@@H]1CC(=O)NCCCC[C@H](NC(=O)[C@H](CC(=O)O)NC(=O)C(C)(C)NC(=O)[C@@H](N)Cc2c[nH]cn2)C(=O)N[C@@H](CO)C(=O)N[C@@H](Cc2ccccc2)C(=O)N[C@@H](CO)C(=O)N1)C(=O)N[C@](C)(Cc1ccccc1)C(=O)N[C@H](C(=O)N[C@@](C)(CC(C)C)C(=O)N[C@@H](CC(C)C)C(=O)N[C@@H](CC(=O)O)C(=O)N[C@H]1CCC(=O)NCCCC[C@@H](C(=O)N[C@@H](CC(=O)O)C(=O)N[C@@H](Cc2ccccc2)C(=O)N[C@H](C(=O)N[C@H]2CCC(=O)NCCCC[C@@H](C(=O)N[C@H](C(=O)N[C@@H](CCCCN)C(N)=O)[C@@H](C)O)NC(=O)[C@H]([C@@H](C)CC)NC(=O)[C@H](CC(C)C)NC(=O)[C@H](Cc3c[nH]c4ccccc34)NC2=O)[C@@H](C)CC)NC(=O)[C@H](C)NC(=O)[C@H](C)NC(=O)[C@H](CCCCN)NC1=O)[C@@H](C)O [Example 36] (H-H[Aib]DKSFSDE[Nle][d(αMeF)]T[αMeL]LDEKAAKDFIEWLIKTK-NH2; lactam 4-8, 16-20, 24-28; N-terminus and C-terminus assumed)"
,101%,0.00316 nM,97%,2 nM,99.2%,0.2 nM,96.3%,1.58 nM,3.4%,"CCCC[C@H](NC(=O)[C@H](CCC(=O)O)NC(=O)[C@H](CC(=O)O)NC(=O)[C@H](CO)NC(=O)[C@H](Cc1ccccc1)NC(=O)[C@H](CO)NC(=O)CNC(=O)[C@H](CC(=O)O)NC(=O)C(C)(C)NC(=O)[C@@H](N)Cc1c[nH]cn1)C(=O)N[C@H](Cc1ccccc1)C(=O)N[C@H](C(=O)N[C@H](C(=O)N[C@@H](CC(C)C)C(=O)N[C@@H](CC(=O)O)C(=O)N[C@H]1CCCCNC(=O)CC[C@@H](C(=O)N[C@@H](CC(=O)O)C(=O)N[C@@H](Cc2ccccc2)C(=O)N[C@H](C(=O)N[C@@H](CC(N)=O)C(=O)N[C@@H](Cc2c[nH]c3ccccc23)C(=O)N[C@@H](CC(C)C)C(=O)N[C@H](C(=O)N[C@@H](CCC(N)=O)C(=O)N[C@H]2CCCCNC(=O)CC[C@@H](C(N)=O)NC(=O)[C@H]([C@@H](C)O)NC(=O)[C@H]([C@@H](C)CC)NC(=O)[C@H](CCCCN)NC2=O)[C@@H](C)CC)[C@@H](C)CC)NC(=O)[C@H](C)NC(=O)[C@H](C)NC(=O)[C@H](CCCCN)NC1=O)[C@@H](C)CC)[C@@H](C)O [Example 113] (H-H[Aib]DGSFSDE[Nle][dF]TILDKKAAEDFINWLIQKKITE-NH2; lactam 16-20, 29-33; C-terminus assumed)"
